Experimental data: US10472347B2, “Aminopyrazine compounds with A2A antagonist properties” (Merck Sharp & Dohme Corp., priority 2014, dated 2019)

target: T1, human A2a receptor (Homo sapiens, UniProt P29274); experiment: A2a competition binding assay, Scintillation Proximity technology; details: membranes from HEK293 cells expressing human A2a receptor; Ki by Cheng-Prusoff equation
T1 construct: purchased Perkin-Elmer RBHA2AM400UA; host or cells: HEK293 cells (membranes)
In short: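 Membranes from HEK293 cells expressing human A2a, adenosine deaminase-treated, incubated 1 h at room temperature with compound (3000 to 0.15 nM) and 0.5 nM tritiated pyrazolotriazolopyrimidine radioligand on WGA SPA beads in Ca/Mg-free PBS + 10 mM MgCl2. Non-specific binding with 1 μM CGS15943; Ki by Cheng-Prusoff.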

T1 sequence (P29274 whole entry): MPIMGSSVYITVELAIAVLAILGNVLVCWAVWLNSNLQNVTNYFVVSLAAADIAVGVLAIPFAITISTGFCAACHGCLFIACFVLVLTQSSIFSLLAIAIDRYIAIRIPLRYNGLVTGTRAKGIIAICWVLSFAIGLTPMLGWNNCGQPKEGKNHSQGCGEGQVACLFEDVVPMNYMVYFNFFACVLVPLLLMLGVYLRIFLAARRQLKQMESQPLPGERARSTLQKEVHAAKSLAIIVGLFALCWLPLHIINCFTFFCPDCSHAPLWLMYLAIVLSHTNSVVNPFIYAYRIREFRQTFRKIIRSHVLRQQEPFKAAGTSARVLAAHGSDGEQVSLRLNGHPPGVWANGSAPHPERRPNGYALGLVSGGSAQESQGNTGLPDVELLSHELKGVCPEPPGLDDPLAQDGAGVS

SMILES | Ki
Cc1nc(C(=O)NCc2ccccn2)c(N)nc1-c1ncco1 [Ex-51, 3-amino-6-methyl-5-(1,3-oxazol-2-yl)-N-(pyridin-2-ylmethyl)pyrazine-2-carboxamide] | 0.717 nM
Cc1nc(C(=O)NCc2ccc(F)nc2)c(N)nc1-c1ncco1 [Ex-53, 3-amino-N-[(6-fluoropyridin-3-yl)methyl]-6-methyl-5-(1,3-oxazol-2-yl)pyrazine-2-carboxamide] | 26.1 nM
Cc1nc(C(=O)NCc2cc(C(F)(F)F)cc(Cl)n2)c(N)nc1-c1ncco1 [Ex-54, 3-amino-N-{[6-chloro-4-(trifluoromethyl)pyridin-2-yl]methyl}-6-methyl-5-(1,3-oxazol-2-yl)pyrazine-2-carboxamide] | 1.77 nM
Cc1cnnc(CNC(=O)c2nc(C)c(-c3ncco3)nc2N)c1 [Ex-56, 3-amino-6-methyl-N-[(5-methylpyridazin-3-yl)methyl]-5-(1,3-oxazol-2-yl)pyrazine-2-carboxamide] | 21.5 nM
Cc1nc(C(=O)NCc2nccc(OCC(F)(F)F)c2C)c(N)nc1-c1ncco1 [Ex-58, 3-amino-6-methyl-N-{[3-methyl-4-(2,2,2-trifluoroethoxy)pyridin-2-yl]methyl}-5-(1,3-oxazol-2-yl)pyrazine-2-carboxamide] | 4.56 nM
Cc1nc(C(=O)NCc2ccc(C(F)(F)F)cn2)c(N)nc1-c1ncco1 [Ex-59, 3-amino-6-methyl-5-(1,3-oxazol-2-yl)-N-{[5-(trifluoromethyl)pyridin-2-yl]methyl}pyrazine-2-carboxamide] | 14.8 nM
Cc1nc(C(=O)NCc2ncc(F)cc2F)c(N)nc1-c1ncco1 [Ex-62, 3-amino-N-[(3,5-difluoropyridin-2-yl)methyl]-6-methyl-5-(1,3-oxazol-2-yl)pyrazine-2-carboxamide] | 0.622 nM
Cc1nc(C(=O)NCc2cc(C(F)F)cc(C(F)F)n2)c(N)nc1-c1ncco1 [Ex-63, 3-amino-N-{[4,6-bis(difluoromethyl)pyridin-2-yl]methyl}-6-methyl-5-(1,3-oxazol-2-yl)pyrazine-2-carboxamide] | 2.52 nM
Cc1nc(C(=O)NC2CCN(c3ncccn3)CC2)c(N)nc1-c1ncco1 [Ex-66, 3-amino-6-methyl-5-(1,3-oxaol-2-yl)-N-(1-pyrimidin-2-ylpiperidin-4-yl)pyrazine-2-carboxamide] | 24.4 nM
Cc1nc(C(=O)NCc2cncnc2)c(N)nc1-c1ncco1 [Ex-69, 3-amino-6-methyl-5-(1,3-oxazol-2-yl)-N-(pyrimidin-5-ylmethyl)pyrazine-2-carboxamide] | 56.5 nM
Cc1ccc(CNC(=O)c2nc(C)c(-c3ncco3)nc2N)c(C)n1 [Ex-70, 3-amino-N-[(2,6-dimethylpyridin-3-yl)methyl]-6-methyl-5-(1,3-oxazol-2-yl)pyrazine-2-carboxamide] | 41 nM
Cc1nc(C(=O)NCc2ncccc2Cl)c(N)nc1-c1ncco1 [Ex-72, 3-amino-N-[(3-chloropyridin-2-yl)methyl]-6-methyl-5-(1,3-oxazol-2-yl)pyrazine-2-carboxamide] | 0.287 nM
Cc1cn(C)nc1CNC(=O)c1nc(C)c(-c2ncco2)nc1N [Ex-77, 3-amino-N-[(1,4-dimethyl-1H-pyrazol-3-yl)methyl]-6-methyl-5-(1,3-oxazol-2-yl)pyrazine-2-carboxamide] | 0.828 nM
Cc1nc(C(=O)NCc2cnn(C)c2C)c(N)nc1-c1ncco1 [Ex-78, 3-amino-N-[(1,5-dimethyl-1H-pyrazol-4-yl)methyl]-6-methyl-5-(1,3-oxazol-2-yl)pyrazine-2-carboxamide] | 5.72 nM
COc1ccc(C)c(CNC(=O)c2nc(C)c(-c3ncco3)nc2N)n1 [Ex-80, 3-amino-N-[(6-methoxy-3-methylpyridin-2-yl)methyl]-6-methyl-5-(1,3-oxazol-2-yl)pyrazine-2-carboxamide] | 1.59 nM

Continued, values first:

Ki | SMILES
4.88 nM | Cc1nc(C(=O)NCc2cccc[n+]2[O-])c(N)nc1-c1ncco1 [Ex-52, 3-amino-6-methyl-5-(1,3-oxazol-2-yl)-N-[(1-oxidopyridin-2-yl)methyl]pyrazine-2-carboxamide]
3.89 nM | COc1ccc(CNC(=O)c2nc(C)c(-c3ncco3)nc2N)nc1C(F)(F)F [Ex-55, 3-amino-N-{[5-methoxy-6-(trifluoromethyl)pyridin-2-yl]methyl}-6-methyl-5-(1,3-oxazol-2-yl)pyrazine-2-carboxamide]
1.03 nM | Cc1nc(C(=O)NCc2ccc(F)cn2)c(N)nc1-c1ncco1 [Ex-57, 3-amino-N-[(5-fluoropyridin-2-yl)methyl]-6-methyl-5-(1,3-oxazol-2-yl)pyrazine-2-carboxamide]
9.2 nM | Cc1nc(C(=O)NCC(C)(C)c2ccncc2)c(N)nc1-c1ncco1 [Ex-60, 3-amino-6-methyl-N-(2-methyl-2-pyridin-4-ylpropyl)-5-(1,3-oxazol-2-yl)pyrazine-2-carboxamide]
2.46 nM | Cc1nc(C(=O)NCc2cc(F)ccn2)c(N)nc1-c1ncco1 [Ex-61, 3-amino-N-[(4-fluoropyridin-2-yl)methyl]-6-methyl-5-(1,3-oxazol-2-yl)pyrazine-2-carboxamide]
1.5 nM | Cc1nc(C(=O)NCc2cccnc2O)c(N)nc1-c1ncco1 [Ex-64, 3-amino-N-[(2-hydroxypyridin-3-yl)methyl]-6-methyl-5-(1,3-oxazol-2-yl)pyrazine-2-carboxamide]
4.19 nM | Cc1nc(C(=O)NCc2cccnc2Cl)c(N)nc1-c1ncco1 [Ex-65, 3-amino-N-[(2-chloropyridin-3-yl)methyl]-6-methyl-5-(1,3-oxazol-2-yl)pyrazine-2-carboxamide]
64.1 nM | Cc1cnccc1CNC(=O)c1nc(C)c(-c2ncco2)nc1N [Ex-67, 3-amino-6-methyl-N-[(3-methylpyridin-4-yl)methyl]-5-(1,3-oxazol-2-yl)pyrazine-2-carboxamide]
27.3 nM | Cc1nc(C(=O)NCC(=O)N2CCC2)c(N)nc1-c1ncco1 [Ex-68, 3-amino-N-(2-azetidin-1-yl-2-oxoethyl)-6-methyl-5-(1,3-oxazol-2-yl)pyrazine-2-carboxamide]
23.8 nM | Cc1nc(C)c(CNC(=O)c2nc(C)c(-c3ncco3)nc2N)s1 [Ex-71, 3-amino-N-[(2,4-dimethyl-1,3-thiazol-5-yl)methyl]-6-methyl-5-(1,3-oxazol-2-yl)pyrazine-2-carboxamide]
4.64 nM | Cc1cnc(F)c(CNC(=O)c2nc(C)c(-c3ncco3)nc2N)c1 [Ex-73, 3-amino-N-[(2-fluoro-5-methylpyridin-3-yl)methyl]-6-methyl-5-(1,3-oxazol-2-yl)pyrazine-2-carboxamide]
2.27 nM | Cc1nc(C(=O)NCc2ncc(Cl)cc2F)c(N)nc1-c1ncco1 [Ex-74, 3-amino-N-[(5-chloro-3-fluoropyridin-2-yl)methyl]-6-methyl-5-(1,3-oxazol-2-yl)pyrazine-2-carboxamide]
40.4 nM | Cc1nc(C(=O)NCc2cc(C(F)F)nc(C(F)F)c2)c(N)nc1-c1ncco1 [Ex-75, 3-amino-N-{[2,6-bis(difluoromethyl)pyridin-4-yl]methyl}-6-methyl-5-(1,3-oxazol-2-yl)pyrazine-2-carboxamide]
50.1 nM | Cc1nc(C(=O)NCc2ccncn2)c(N)nc1-c1ncco1 [Ex-76, 3-amino-6-methyl-5-(1,3-oxazol-2-yl)-N-(pyrimidin-4-ylmethyl)pyrazine-2-carboxamide]
0.34 nM | CCn1ccnc1CNC(=O)c1nc(C)c(-c2ncco2)nc1N [Ex-79, 3-amino-N-[(1-ethyl-1H-imidazol-2-yl)methyl]-6-methyl-5-(1,3-oxazol-2-yl)pyrazine-2-carboxamide]
